Data as given in US10993957B2 (NuCana plc, priority 2011, dated 2021).
Where two headings read alike, the source gives them in different places.

Legend:
[1] = test system: L1210/0; test: Cytostatic assay, L1210/0 cells; type: cell-based, murine
Description: (§1) The cell lines employed were L1210/0 (a leukemia cell line), FM3A/0 (a breast cancer cell line), Cem/0 (an acute lymphoblastic leukemia cell line) and HeLa (a cervical cell line).

[2] = test system: L1210/TK^−; test: Cytostatic assay, thymidine kinase-deficient L1210/TK^− cells; type: cell-based, murine
[3] = test system: Cem/0; test: Cytostatic assay, CEM/0 cells; type: cell-based, human; settings: for IC50: read-out: IC50 Cem/0; for CC50: read-out: CC50 Cem/0
Description: as §1

[4] = test system: Cem/TK^−; test: Cytostatic assay, thymidine kinase-deficient CEM/TK^− cells; type: cell-based, human; settings: for IC50: read-out: IC50 Cem/TK^−; for CC50: read-out: CC50 Cem/TK^−
[5] = test system: HeLa; test: Cytostatic assay, HeLa cells; type: cell-based; settings: for IC50: read-out: IC50 HeLa; for CC50: read-out: CC50 HeLa
Description: as §1

[6] = test system: HeLa/TK^−; test: Cytostatic assay, HeLa/TK^− cells; type: cell-based; settings: for IC50: read-out: IC50 HeLa/TK^−; for CC50: read-out: CC50 HeLa/TK^−
Description: as §1

[7] = test system: L1210.Hyor; test: Cytostatic assay, Mycoplasma hyorhinis-infected L1210 cells; settings: for % Retention: CC50 L1210 × 100 ÷ CC50 L1210/Hyor; for CC50: L1210, read-out: CC50 L1210/Hyor
Description: Murine leukaemia L1210/0 and human T-lymphocyte CEM/0 cells were obtained from the American Type Culture Collection (ATCC) (Rockville, Md.). Human glioblastoma U87 cells were kindly provided by Dr. E. Menue (Institut Pasteur, Paris, France). […] S. Eriksson (currently at Uppsala University, Uppsala, Sweden) and Prof A. Karlsson (Karolinska Institute, Stockholm, Sweden). […] All cells were maintained in Dulbecco's modified Eagle's medium (DMEM) (Invitrogen, Carlsbad, Calif.) with 10% foetal bovine serum (FBS) (Biochrom AG, Berlin, Germany), 10 mM Hepes and 1 mM Sodium Pyruvate (Invitrogen). Cells were grown at 37° C. in a humidified incubator with a gas phase of 5% CO2.
Monolayer cells (U87 and U87.Hyor) were seeded in 48-well microtiter plates (Nunc™, Roskilde, Denmark) at 10,000 cells/well. After 24 hours, an equal volume of fresh medium containing the test compounds was added. On day 5, cells were trypsinized and counted in a Coulter counter (Analis, Suarlée, Belgium). Suspension cells (L1210/0, L1210/TK^−, L1210.Hyor, CEM/0, CEM/TK^−) were seeded in 96-well microtiter plates (Nunc™) at 60,000 cells/well in the presence of a given amount of the test compounds. The cells were allowed to proliferate for 48 h (L1210) or 72 hours (CEM) and were then counted in a Coulter counter.
Samples were also assayed for their % retention of activity in mycoplasma infected cells.
The L1210/0 cell cultures were infected with the mycoplasma species M. hyorhinis (cells designated: L1210.Hyor).

[8] = Table 6, read-out: IC50 L1210/0
[9] = Table 7, read-out: IC50 L1210/0
[10] = Table 6, read-out: IC50 L1210/TK^−
[11] = read-out: IC50 L1210.Hyor, Table 7
[12] = Mus musculus, L1210/0, Table 1, read-out: CC50 L1210/0
[13] = Mus musculus, L1210, Table 1, read-out: CC50 L1210/TK^−
[14] = Homo sapiens, CCRF-CEM, Table 1
[15] = Homo sapiens, CEM-TK(-), Table 1
[16] = Mus musculus, L1210, read-out: IC50 L1210.Hyor
[17] = Mus musculus, L1210/0, Table 2, mycoplasma negative cells, read-out: CC50 L1210
[18] = Mus musculus, L1210/0, Table 6, read-out: IC50 L1210/0
[19] = Mus musculus, L1210/0, Table 7, read-out: IC50 L1210/0
[20] = Mus musculus, L1210, Table 6, read-out: IC50 L1210/TK^−
[21] = Homo sapiens, CCRF-CEM, Table 6
[22] = Homo sapiens, CEM-TK(-), Table 6

Row | SMILES | IC50 [1, 8] [nM] | IC50 [1, 9] [nM] | IC50 [2, 10] [nM] | IC50 ([3]; Table 6) [nM] | IC50 ([4]; Table 6) [nM] | IC50 ([5]; Table 6) [nM] | IC50 ([6]; Table 6) [nM] | IC50(L1210.Hyor)/IC50(L1210/0) ([7]; Table 7) | IC50 [7, 11] [nM] | CC50 [1, 12] [nM] | CC50 [2, 13] [nM] | CC50 [3, 14] [nM] | CC50 [4, 15] [nM] | CC50 ([5]; Homo sapiens, HeLa, Table 1) [nM] | CC50 ([6]; Homo sapiens, HeLa, Table 1) [nM] | % Retention [7] [%] | CC50 ([7]; Mus musculus) [nM] | IC50 [7, 16] [nM] | other results
1 | CC(C)CC(NP(=O)(OCC1OC(n2cc(F)c(=O)[nH]c2=O)CC1O)Oc1cccc2ccccc12)C(=O)OCc1ccccc1 (stereo not drawn) [Nap Bn Leu] | 28 ± 4 | 29 ± 2.1 | 1500 ± 600 | 130 | 30000 ± 6000 | 80 ± 22 | 9400 ± 1400 | 1.7 | 48 ± 20 | – | – | – | – | – | – | – | – | – | –
2 | CC(C)OC(=O)[C@H](C)NP(=O)(O)OCC1OC(n2cc(F)c(=O)[nH]c2=O)CC1O (stereo partly drawn) [CPF 438, reference compound] | – | – | – | – | – | – | – | – | – | 120 ± 20 | 51000 ± 9000 | 2100 ± 600 | 32000 ± 2000 | 3700 ± 500 | 72000 | – | – | – | –
3 | O=C(OCc1ccccc1)C1CCCN1P(=O)(OC[C@H]1O[C@@H](n2cc(F)c(=O)[nH]c2=O)CC1O)Oc1ccccc1 (stereo partly drawn) [CPF 583, 5-Fluoro-2′-deoxyuridine-5′-O-[phenyl(benzoxy-L-prolinyl)] phosphate] | – | – | – | – | – | – | – | 51 | – | – | – | – | – | – | – | 3.3 | 11900 | 18000 ± 710 | CC50 ([1]; Mus musculus, L1210/0, read-out: CC50 L1210): 387 nM; CC50 ([1]; Mus musculus, L1210/0, read-out: CC50 L1210/0): 350 ± 70 nM; IC50 ([1]; Mus musculus, L1210/0, read-out: IC50 L1210/0, Table 6): 350 ± 70 nM; IC50 ([1]; Mus musculus, L1210/0, read-out: IC50 L1210/0, Table 7): 350 ± 22 nM; CC50 ([2]; Mus musculus, L1210, read-out: CC50 L1210/TK^−): 31000 ± 5000 nM; IC50 ([2]; Mus musculus, L1210, read-out: IC50 L1210/TK^−): 31000 ± 5000 nM; CC50 ([3]; Homo sapiens, CCRF-CEM): 980 ± 400 nM; IC50 ([3]; Homo sapiens, CCRF-CEM): 980 ± 400 nM; CC50 ([4]; Homo sapiens, CEM-TK(-)): 28000 ± 8000 nM; IC50 ([4]; Homo sapiens, CEM-TK(-)): 28000 ± 8000 nM; CC50 ([5]; Homo sapiens, HeLa): 1100 ± 400 nM; IC50 ([5]; Homo sapiens, HeLa): 1100 ± 400 nM; CC50 ([6]; Homo sapiens, HeLa): 20000 ± 11000 nM; IC50 ([6]; Homo sapiens, HeLa): 20000 ± 11000 nM
4 | C[C@H](NP(=O)(OC[C@H]1O[C@@H](n2cc(F)c(=O)[nH]c2=O)CC1O)Oc1cccc2ccccc12)C(=O)OC1CCCC1 (stereo partly drawn) [CPF 582, 5-Fluoro-2′-deoxyuridine-5′-O-[1-naphthyl-(cyclopentoxy-L-alaninyl)]phosphate] | – | – | – | – | – | – | – | 1.5 | – | 31 ± 10 | 130 ± 20 | 35 ± 25 | 920 ± 7 | 71 ± 36 | 2200 ± 1300 | 83 | 42 | 24 ± 5 | CC50 [1, 17]: 35 nM; IC50 [1, 18]: 31 ± 10 nM; IC50 [1, 19]: 16 ± 0.7 nM; IC50 [2, 20]: 130 ± 20 nM; IC50 [3, 21]: 350 ± 25 nM; IC50 [4, 22]: 920 ± 7 nM; IC50 ([5]; Homo sapiens, HeLa, Table 6): 71 ± 36 nM; IC50 ([6]; Homo sapiens, HeLa, Table 6): 2200 ± 1300 nM
5 | CCCCCOC(=O)C(NP(=O)(OCC1OC(n2cc(F)c(=O)[nH]c2=O)CC1O)Oc1cccc2ccccc12)C(C)CC (mixture of isomers) [Nap Pnt Ile] | 220 ± 120 | 420 ± 21 | 12000 ± 2000 | 460 ± 110 | 17000 ± 1000 | 300 ± 20 | 11000 ± 1000 | 1.67 | 700 ± 74 | – | – | – | – | – | – | – | – | – | –
6 | O=C(OCc1ccccc1)C(Cc1ccccc1)NP(=O)(OCC1OC(n2cc(F)c(=O)[nH]c2=O)CC1O)Oc1ccccc1 (stereo not drawn) [Ph Bn Phe] | 36 ± 10 | 16 ± 1.4 | 39000 ± 4000 | 250 ± 20 | 11000 ± 3000 | 14 ± 7 | 12000 ± 2000 | 35 | 560 ± 23 | – | – | – | – | – | – | – | – | – | –
7 | C[C@H](NP(=O)(OC[C@H]1O[C@@H](n2cc(F)c(=O)[nH]c2=O)CC1O)Oc1cccc2ccccc12)C(=O)OCCC(C)(C)C (stereo partly drawn) [CPF 585, 5-Fluoro-2′-deoxyuridine-5′-O-[1-naphthyl(3,3-dimethyl-1-butoxy-L-alaninyl)] phosphate] | – | – | – | – | – | – | – | 2.7 | – | 16 ± 6 | 62 ± 9 | 53 ± 21 | 190 ± 40 | 78 ± 18 | 1300 ± 900 | 41 | 51 | 32 ± 8.8 | CC50 [1, 17]: 21 nM; IC50 [1, 18]: 16 ± 6 nM; IC50 [1, 19]: 12 ± 1.8 nM; IC50 [2, 20]: 62 ± 9 nM; IC50 [3, 21]: 53 ± 21 nM; IC50 [4, 22]: 190 ± 40 nM; IC50 ([5]; Homo sapiens, HeLa, Table 6): 78 ± 18 nM; IC50 ([6]; Homo sapiens, HeLa, Table 6): 1300 ± 900 nM
8 | CCOC(=O)[C@H](C)NP(=O)(O)OCC1OC(n2cc(F)c(=O)[nH]c2=O)CC1O (stereo partly drawn) [CPF 437, reference compound] | – | – | – | – | – | – | – | – | – | 36000 ± 5000 | > 100000 | > 100000 | > 100000 | > 100000 | > 100000 | – | – | – | –
